Data reported in BigSolDB 2.1.

CN1CCOC(c2ccccc2)c2ccccc2C1.Cl (stereo not drawn)
solubility (mole fraction)
Conditions	in acetone	in ethanol	in isobutanol	in isopropanol	in methanol	in n-butanol	in n-propanol	in water
273.15 K	7.2e-05	0.00136	0.000415	0.000136	0.00515	0.000205	0.000291	0.000951
278.15 K	8.7e-05	0.00163	0.000524	0.000167	0.00566	0.000245	0.000328	0.00106
283.15 K	0.000107	0.00198	0.000635	0.000206	0.00632	0.000287	0.000387	0.00124
288.15 K	0.000128	0.00247	0.000797	0.000251	0.00692	0.000369	0.000495	0.00144
293.15 K	0.000151	0.0029	0.000955	0.00032	0.00764	0.000463	0.000652	0.00167
298.15 K	0.000182	0.00337	0.00116	0.000407	0.00856	0.000605	0.000836	0.00199
303.15 K	0.000215	0.00402	0.00144	0.000494	0.00951	0.000776	0.00106	0.00234
308.15 K	0.000265	0.00473	0.00175	0.000608	0.0105	0.000986	0.00134	0.00273
313.15 K	0.000312	0.00559	0.00214	0.000752	0.0115	0.00125	0.0017	0.00317
318.15 K	0.000373	0.00654	0.0026	0.000935	0.0128	0.00159	0.00213	0.00369
323.15 K	0.000445	0.00795	0.00321	0.00114	0.0143	0.00198	0.00267	0.00426
